Data: patent US20230212159A1, “Process for the Production of Ferroportin Inhibitors” (Vifor (International) AG, priority 2020, published 2023)
Like-named read-outs stand apart in the source and are kept apart here.

Molecular target: T1, ferroportin (Fpn) (Mus musculus, UniProt Q9JHI9)
T1 construct: endogenous in cells; host or cells: J774 mouse macrophage cell line
T1 sequence (Q9JHI9 1-570): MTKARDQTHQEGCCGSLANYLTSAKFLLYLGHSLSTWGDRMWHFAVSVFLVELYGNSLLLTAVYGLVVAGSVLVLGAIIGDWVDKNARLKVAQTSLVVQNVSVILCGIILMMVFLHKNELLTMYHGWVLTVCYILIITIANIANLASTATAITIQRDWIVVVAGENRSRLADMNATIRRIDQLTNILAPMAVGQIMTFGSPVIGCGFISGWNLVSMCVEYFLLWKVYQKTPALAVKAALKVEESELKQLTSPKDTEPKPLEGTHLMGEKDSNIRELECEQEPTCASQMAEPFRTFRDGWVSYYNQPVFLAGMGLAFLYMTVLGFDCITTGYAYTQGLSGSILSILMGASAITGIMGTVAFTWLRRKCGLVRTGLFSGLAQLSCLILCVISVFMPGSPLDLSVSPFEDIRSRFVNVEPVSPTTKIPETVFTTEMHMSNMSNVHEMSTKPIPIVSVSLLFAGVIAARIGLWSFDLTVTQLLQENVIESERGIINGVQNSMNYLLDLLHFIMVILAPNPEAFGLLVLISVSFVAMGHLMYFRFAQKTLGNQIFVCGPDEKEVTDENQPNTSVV
Assay: Hepcidin internalization assay (J774)
Type: cell-based
From the text: This cellular assay allows quantification of the binding of hepcidin to ferroportin (Fpn) through microscopic detection of internalization of a fluorescently labeled hepcidin into J774 cells. […] Binding of hepcidin to Fpn triggers internalization and degradation of both hepcidin and Fpn. However, the TMR (6-carboxytetramethylrhodamine) fluorophore attached to hepcidin remains associated with the cell after degradation of the hepcidin peptide backbone. Therefore, microscopic detection of cell-associated TMR fluorescence is a measure of hepcidin binding to Fpn and internalization of hepcidin and Fpn. If TMR-hepcidin is prevented from binding to Fpn, cellular TMR fluorescence remains low (Dürrenberger et al, 2013). The effect of small molecular weight Fpn inhibitor compounds in this assay was evaluated in vitro as described below.
J774 cells, harvested from ca. 80% confluent cultures, were plated at 8x10^5 cells/ml in complete medium (DMEM, 10% FBS, 1% Penicillin-Streptomycin) containing 200 µM Fe(III)NTA (nitrilotriacetic acid), 100 µl per well of 96 well MicroClear plates (Greiner; Cat. 655090) and grown at 37° C. with 5% CO2. After overnight incubation, cells were washed 3 times with prewarmed DMEM w/o phenol red, 30 µl/well of DMEM w/o phenol red was added after the final wash and 10 µl/well of dilution series of test compounds were added in triplicates. J774 cells were pre-incubated with test compounds at 37° C. with 5% CO2 for 15 min. before TMR-hepcidin was added at 25 nM final concentration. Cells were incubated in a total volume of 50 µl at 37° C. with 5% CO2 for 2 hours, then Hoechst 33342 dye was added to a final concentration of 0.5 µg/ml to stain nuclei and further incubated for 10 min. at 37° C. with 5% CO2. Cells were washed 3 times with PBS and fixed in 100 µl of 4% paraformaldehyde in PBS for 15 min. at room temperature. After removal of the paraformaldehyde solution, cells were washed 3 times with PBS leaving 100 µl per well and the plates were sealed with foil plate seal. TMR (530-550 nm excitation / 575-625 nm emission / 400 ms exposure time) and Hoechst 33342 (360-370 nm excitation / 420-460 nm emission / 10 ms exposure time) fluorescence images were acquired using a ScanR plate imager (Olympus) with a 20x high NA objective. Four pictures were acquired per well and fluorescence channel covering ca. 1500 cells per well. The acquired image data was analysed with the ScanR image analysis software. Image analysis included detection of nuclei (Hoechst 33342 fluorescence), identification of cell-associated regions, application of a virtual channel and thresholding for rolling-ball-type background reduction, followed by application of the Sum(Mean) algorithm to measure the TMR fluorescence associated with cells as a quantitative measure for internalized TMR- hepcidin. IC50 values were calculated with the Sum(Mean) raw data using “log(inhibitor) vs. response” curve fitting of Prism 5 software (GraphPad Software Inc., version 5.02). For each data set the fit of the “log(inhibitor) vs. response (three parameters)″ model was compared to the fit of the “log(inhibitor) vs. response - Variable slope (four parameters)″ model and the IC50 data of the preferred model was used. IC50 data of the Compounds according to formula (II) and (II′), that were tested in the hepcidin internalization assay are shown in Table 1.

[1] = J774 cells, (II) and (II′) tested as 3HCl-salts, n=2, read-out: Hepcidin internalization (J774) IC50
[2] = average of multiple measurements, hepcidin internalization assay, 3HCl-salts, read-out: J774 IC50

IC50 [1] [nM]	IC50 [2] [nM]	SMILES
5.9	6	O=C(NCc1ncccc1Br)c1coc(CCNCCc2nc3ccccc3[nH]2)n1 [Compound (II′)]
10.7	–	CC[C@H](C)[C@@H]1NC(=O)[C@@H](NC(=O)[C@@H](NC(=O)[C@@H]2CCCN2C(=O)[C@H](Cc2ccccc2)NC(=O)[C@H](Cc2c[nH]cn2)NC(=O)[C@@H](NC(=O)[C@@H](N)CC(=O)O)[C@@H](C)O)[C@@H](C)CC)CSSC[C@@H](C(=O)N[C@@H](CCCCN)C(=O)N[C@H](C(=O)O)[C@@H](C)O)NC(=O)[C@@H]2CSSC[C@@H]3NC(=O)[C@@H]4CSSC[C@H](NC(=O)[C@H](Cc5ccccc5)NC1=O)C(=O)N[C@@H](CSSC[C@H](NC(=O)[C@H](CCCCN)NC(=O)[C@H](CO)NC(=O)[C@H](CCCNC(=N)N)NC(=O)[C@H](Cc1c[nH]cn1)NC3=O)C(=O)NCC(=O)N[C@@H](CCSC)C(=O)N2)C(=O)NCC(=O)N4 [hepcidin, reference compound]
7.3	7	O=C(NCc1ncccc1F)c1coc(CCNCCc2nc3ccccc3[nH]2)n1 [Compound (II)]
